Experimental findings from ChEMBL document CHEMBL2380196, “New anticancer active and selective phenylene-bisbenzothiazoles: synthesis, antiproliferative evaluation and DNA binding” (Eur J Med Chem, 2013) are described below.

Structures are written as SMILES. Activity calls are given as the source filed them. The calls are words filed in the database; no cut-off is given here.

The target in assay [1] is T1, DNA topoisomerase 1 (Homo sapiens) (UniProt P11387).
T1 sequence (whole entry): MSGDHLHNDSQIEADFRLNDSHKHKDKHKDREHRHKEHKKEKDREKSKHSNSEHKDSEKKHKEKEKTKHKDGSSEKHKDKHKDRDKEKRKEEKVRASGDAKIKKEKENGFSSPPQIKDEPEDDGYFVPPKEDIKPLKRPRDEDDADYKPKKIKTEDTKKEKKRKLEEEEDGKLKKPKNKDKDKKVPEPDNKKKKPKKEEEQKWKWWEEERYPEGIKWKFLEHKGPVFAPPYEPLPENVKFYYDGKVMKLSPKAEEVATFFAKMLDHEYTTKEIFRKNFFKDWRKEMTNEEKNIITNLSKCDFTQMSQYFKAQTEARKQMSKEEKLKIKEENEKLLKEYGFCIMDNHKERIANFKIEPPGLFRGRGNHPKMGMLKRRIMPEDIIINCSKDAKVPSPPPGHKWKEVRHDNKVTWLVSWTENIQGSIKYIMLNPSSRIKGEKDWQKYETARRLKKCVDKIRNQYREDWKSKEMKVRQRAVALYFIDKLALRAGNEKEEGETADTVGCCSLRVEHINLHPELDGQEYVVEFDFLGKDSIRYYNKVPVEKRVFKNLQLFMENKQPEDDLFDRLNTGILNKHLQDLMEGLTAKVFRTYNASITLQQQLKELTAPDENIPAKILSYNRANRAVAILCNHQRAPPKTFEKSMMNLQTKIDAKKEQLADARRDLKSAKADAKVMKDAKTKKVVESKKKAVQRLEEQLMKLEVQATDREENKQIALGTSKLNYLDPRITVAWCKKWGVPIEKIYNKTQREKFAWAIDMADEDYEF
As to the kind of experiment: Inhibition of human topoisomerase 1-mediated supercoiled pUC19 DNA relaxation assessed as formation of open circle form after 45 mins using ethidium bromide staining by agarose gel electrophoresis.

A short description of assay [2]: Binding affinity to DNA (unknown origin) after 15 mins by DNase I footprinting assay.
Assay [3] relates to SW-620. As to the kind of experiment: Induction of apoptosis in human SW620 cells at 10 uM after 48 hrs using propidium iodide/Annexin-V staining by flow cytometry relative to control. It counts as functional.
Assay [4] relates to SW-620. As to the kind of experiment: Induction of apoptosis in human SW620 cells at 10 uM after 24 hrs using propidium iodide/Annexin-V staining by flow cytometry relative to control. In kind it is functional. For orientation: Flow cytometry measures light scatter and fluorescence of single cells or particles in a stream.
The subject of assay [5] is SW-620. In words: Cell cycle arrest in human SW620 cells assessed as accumulation in G2/M phase at 10 uM after 48 hrs using propidium iodide staining by flow cytometry relative to control. It counts as functional.
Assay [6] concerns SW-620. As to the kind of experiment: Cell cycle arrest in human SW620 cells assessed as accumulation in G1 phase at 10 uM after 48 hrs using propidium iodide staining by flow cytometry relative to control. It counts as functional.
The test system of assay [7] is SW-620. As to the kind of experiment: Cell cycle arrest in human SW620 cells assessed as accumulation in sub-G1 phase at 10 uM after 48 hrs using propidium iodide staining by flow cytometry relative to control. It counts as functional.
Assay [8] has as its system SW-620. As to the kind of experiment: Cell cycle arrest in human SW620 cells assessed as accumulation in G1 phase at 5 uM after 48 hrs using propidium iodide staining by flow cytometry relative to control. It counts as functional.
Assay [9] concerns SW-620. As to the kind of experiment: Cell cycle arrest in human SW620 cells assessed as accumulation in sub-G1 phase at 5 uM after 48 hrs using propidium iodide staining by flow cytometry relative to control. In kind it is functional.
Assay [10] has as its system SW-620. As to the kind of experiment: Cell cycle arrest in human SW620 cells assessed as accumulation in G2/M phase at 10 uM after 24 hrs using propidium iodide staining by flow cytometry relative to control. In kind it is functional.
For assay [11], the system named is SW-620. In words: Cell cycle arrest in human SW620 cells assessed as accumulation in sub-G1 phase at 10 uM after 24 hrs using propidium iodide staining by flow cytometry relative to control. It counts as functional.
Assay [12] concerns SW-620. In words: Cell cycle arrest in human SW620 cells assessed as accumulation in G2/M phase at 5 uM after 24 hrs using propidium iodide staining by flow cytometry relative to control. In kind it is functional.
Assay [13] has as its system SW-620. In words: Cell cycle arrest in human SW620 cells assessed as accumulation in S phase at 5 uM after 24 hrs using propidium iodide staining by flow cytometry relative to control. In kind it is functional.
For a further assay, the system named is MIA PaCa-2. As to the kind of experiment: Induction of apoptosis in human MIAPaCa2 cells at 10 uM after 48 hrs using propidium iodide/Annexin-V staining by flow cytometry relative to control. In kind it is functional.

With `Cl.Cl.c1cc(-c2nc3ccc(C4=NCCN4)cc3s2)cc(-c2nc3ccc(C4=NCCN4)cc3s2)c1`, in assay [1], the inhibition result is “Active”. Further, the result in assay [2] was Active. Also, the Activity is 95% in the assay on SW-620 [3]; 8% with SW-620 [4]; 6.8% in the assay with SW-620 [5]; 23.7% with SW-620 [6]; 13.6% in the assay on SW-620 [7]; 36.7% in the assay on SW-620 [8]. Moreover, the Activity with SW-620 [9] is 24.8%; in the assay with SW-620 [10], 23.9%; in the assay on SW-620 [11] it was 45.3%; in the assay on SW-620 [12], 15.5%; with SW-620 [13], 46.6%.

Molecule `Cl.Cl.c1cc2nc(-c3ccc(-c4nc5ccc(C6=NCCN6)cc5s4)cc3)sc2cc1C1=NCCN1` showed an Activity in the assay on MIA PaCa-2 of 4%.
